Among the test systems are CAKI-1; CCRF-CEM; HL-60; HOP-62; KM-20L2; KM12; LOX IMVI; LXFL 529; M19-MEL; MOLT-4; NCI-H522; OVCAR-3; SK-MEL-5; SN12C; TK-10; DMS-273.
Holding throughout (assay): NCI tumour cell line growth inhibition, 48 h

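Exposure lasted 48 hours, with cells grown in 96-well plates and compounds tested at five concentrations. The concentration for 50% growth inhibition is given as GI50.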 Activity calls are given as the source filed them. No stated cut-off is given here; in the data, active = GI50 up to about 1.1 µM and inactive = higher. Some results are limits rather than exact numbers.

Take `CCc1ccccc1NC(=O)C1=C(C)NC(C)=C(C(=O)Nc2ccccc2CC)C1c1ccc2c(c1)OCO2`: the GI50 in the assay with CAKI-1 was 25.2 µM (inactive); in the assay on CCRF-CEM it was 19.5 µM (inactive); in the assay on HL-60, 16.9 µM (inactive); in the assay on HOP-62, 17.1 µM (inactive); in the assay on KM-20L2, > 10 µM (inactive); in the assay with KM12, 19.2 µM (inactive). For the same compound, the GI50 was 24.4 µM (inactive) in the assay with LOX IMVI; 31.3 µM (inactive) in the assay on LXFL 529; 40.9 µM (inactive) in the assay with M19-MEL; 15.4 µM (inactive) in the assay on MOLT-4; 24.1 µM (inactive) in the assay on NCI-H522; 22.5 µM (inactive) with OVCAR-3. Besides, the GI50 was 23.2 µM (inactive) with SK-MEL-5, 41.2 µM (inactive) with SN12C and 47.6 µM (inactive) with TK-10.

Turning to `COc1cc2c(c(OC)c1OC)-c1ccc(SC)c(=O)cc1[C@@H](NC(=O)c1ccc([N+](=O)[O-])cc1)CC2`, the GI50 in the assay on CCRF-CEM, in the assay on DMS-273, with HL-60, with HOP-62, with KM-20L2 and in the assay on KM12 was < 0.0025 µM (active) each time. The GI50 was < 0.0025 µM (active) in the assay with LOX IMVI; 0.0195 µM (active) with M19-MEL; 0.00289 µM (active) in the assay with MOLT-4; < 0.0025 µM (active) in the assay with OVCAR-3; < 0.0025 µM (active) with SK-MEL-5; 0.00957 µM (active) with SN12C. Moreover, in the assay with TK-10, the GI50 is 3.13 µM (inactive).

In the case of `O=C(NC1CCC[C@H]1OC(=O)c1ccccc1)c1ccccc1` (stereo not given in full), the GI50 in the assay with CAKI-1 is 85.7 µM (inactive); in the assay with CCRF-CEM, > 100 µM (inactive); in the assay with DMS-273 it was 95.7 µM (inactive); in the assay on HL-60, 32.2 µM (inactive); in the assay with KM-20L2, > 10 µM (inactive); in the assay on KM12, 69.8 µM (inactive). In addition, the GI50 in the assay on M19-MEL was > 100 µM (inactive); in the assay on MOLT-4, 30.1 µM (inactive); with OVCAR-3 it was 16.2 µM (inactive); with SK-MEL-5 it was 37.2 µM (inactive); in the assay on SN12C, 66.4 µM (inactive); in the assay on TK-10, > 100 µM (inactive).

For the compound `O=C1NC(=O)C2C1N(Cc1ccccc1)C(=O)N2Cc1ccccc1` (stereo not given), the GI50 in the assay on CAKI-1, in the assay with CCRF-CEM, with HL-60, in the assay on HOP-62, with KM-20L2 and in the assay on KM12 was > 100 µM (inactive) in each case. In addition, the GI50 in the assay with LOX IMVI, in the assay on LXFL 529, with M19-MEL, in the assay with MOLT-4, in the assay on NCI-H522 and with OVCAR-3 was > 100 µM (inactive) throughout. Also, the GI50 with SK-MEL-5, in the assay on SN12C and in the assay with TK-10 was > 100 µM (inactive) throughout.

Consider `CN(C)C1(C#N)CCC2(CC1)OCCO2`, for which the GI50 in the assay on CAKI-1, in the assay with CCRF-CEM, in the assay on DMS-273, in the assay on HL-60, in the assay on HOP-62 and in the assay with KM-20L2 was > 100 µM (inactive) in each case. Moreover, the GI50 with KM12, in the assay with LOX IMVI, with M19-MEL, with MOLT-4, in the assay with NCI-H522 and with OVCAR-3 was > 100 µM (inactive) throughout. Besides, the GI50 in the assay with SK-MEL-5, in the assay with SN12C and in the assay on TK-10 was > 100 µM (inactive) each time.
